Test results from PMC8014548, “Applying the CiPA approach to evaluate cardiac proarrhythmia risk of some antimalarials used off‐label in the first wave of COVID‐19” (Clinical and Translational Science, 2021).
Where two headings read alike, the source gives them in different places.

How the values were obtained:
NaV1.5 = biological target: T1, NaV1.5 (Homo sapiens, UniProt Q14524); assay: automated patch clamp (SyncroPatch […]PE); format: cell-based; settings: read-out: NaV1.5 peak
T1 construct: gene SCN5A; stably expressed in CHO cells; no beta subunit mentioned

KV7.1/minK = biological target: T2, KV7.1/minK (Homo sapiens, UniProt P51787); assay: automated patch clamp (SyncroPatch […]PE); format: cell-based
T2 construct: gene KCNQ1; stably expressed in CHO cells; IKs current

hERG = biological target: T3, hERG (Homo sapiens, UniProt Q12809); assay: automated patch clamp (SyncroPatch […]PE); format: cell-based
T3 construct: gene KCNH2; stably expressed in CHO cells; IKr current; homotetramer

[1] = biological target: T4, CaV1.2 (coexpressed with β2/α2δ1) (Homo sapiens, UniProt Q13936); assay: automated patch clamp (SyncroPatch […]PE); format: cell-based; settings: read-out: CaV1.2 peak
T4 construct: gene CACNA1C; stably expressed in CHO cells with beta2 and alpha2delta1; with Voltage-dependent L-type calcium channel subunit beta-2; Voltage-dependent calcium channel subunit alpha-2/delta-1

Kir2.1 = biological target: T5, Kir2.1 (Homo sapiens, UniProt P63252); assay: automated patch clamp (QPatch); format: cell-based
T5 construct: gene KCNJ2; stably expressed in CHO cells; IK1 current; homotetramer
T5 sequence (P63252 1-427): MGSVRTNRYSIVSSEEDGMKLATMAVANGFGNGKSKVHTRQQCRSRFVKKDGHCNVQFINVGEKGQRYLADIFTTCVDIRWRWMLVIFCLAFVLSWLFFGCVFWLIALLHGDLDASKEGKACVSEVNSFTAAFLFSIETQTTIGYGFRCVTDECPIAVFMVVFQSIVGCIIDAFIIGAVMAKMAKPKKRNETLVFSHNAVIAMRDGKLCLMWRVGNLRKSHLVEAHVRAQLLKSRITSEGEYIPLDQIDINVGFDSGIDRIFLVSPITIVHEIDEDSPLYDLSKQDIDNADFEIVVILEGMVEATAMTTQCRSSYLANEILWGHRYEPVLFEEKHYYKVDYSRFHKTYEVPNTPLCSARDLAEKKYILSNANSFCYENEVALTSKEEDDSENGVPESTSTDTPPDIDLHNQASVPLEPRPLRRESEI
Excerpt: automated patch clamp (QPatch) on Kir2.1

HCN4 = biological target: T6, HCN4 (Homo sapiens, UniProt Q9Y3Q4); assay: automated patch clamp (SyncroPatch […]PE); format: cell-based
T6 construct: stably expressed in HEK 293 cells; If current; homotetramer
T6 sequence (Q9Y3Q4 1-1203): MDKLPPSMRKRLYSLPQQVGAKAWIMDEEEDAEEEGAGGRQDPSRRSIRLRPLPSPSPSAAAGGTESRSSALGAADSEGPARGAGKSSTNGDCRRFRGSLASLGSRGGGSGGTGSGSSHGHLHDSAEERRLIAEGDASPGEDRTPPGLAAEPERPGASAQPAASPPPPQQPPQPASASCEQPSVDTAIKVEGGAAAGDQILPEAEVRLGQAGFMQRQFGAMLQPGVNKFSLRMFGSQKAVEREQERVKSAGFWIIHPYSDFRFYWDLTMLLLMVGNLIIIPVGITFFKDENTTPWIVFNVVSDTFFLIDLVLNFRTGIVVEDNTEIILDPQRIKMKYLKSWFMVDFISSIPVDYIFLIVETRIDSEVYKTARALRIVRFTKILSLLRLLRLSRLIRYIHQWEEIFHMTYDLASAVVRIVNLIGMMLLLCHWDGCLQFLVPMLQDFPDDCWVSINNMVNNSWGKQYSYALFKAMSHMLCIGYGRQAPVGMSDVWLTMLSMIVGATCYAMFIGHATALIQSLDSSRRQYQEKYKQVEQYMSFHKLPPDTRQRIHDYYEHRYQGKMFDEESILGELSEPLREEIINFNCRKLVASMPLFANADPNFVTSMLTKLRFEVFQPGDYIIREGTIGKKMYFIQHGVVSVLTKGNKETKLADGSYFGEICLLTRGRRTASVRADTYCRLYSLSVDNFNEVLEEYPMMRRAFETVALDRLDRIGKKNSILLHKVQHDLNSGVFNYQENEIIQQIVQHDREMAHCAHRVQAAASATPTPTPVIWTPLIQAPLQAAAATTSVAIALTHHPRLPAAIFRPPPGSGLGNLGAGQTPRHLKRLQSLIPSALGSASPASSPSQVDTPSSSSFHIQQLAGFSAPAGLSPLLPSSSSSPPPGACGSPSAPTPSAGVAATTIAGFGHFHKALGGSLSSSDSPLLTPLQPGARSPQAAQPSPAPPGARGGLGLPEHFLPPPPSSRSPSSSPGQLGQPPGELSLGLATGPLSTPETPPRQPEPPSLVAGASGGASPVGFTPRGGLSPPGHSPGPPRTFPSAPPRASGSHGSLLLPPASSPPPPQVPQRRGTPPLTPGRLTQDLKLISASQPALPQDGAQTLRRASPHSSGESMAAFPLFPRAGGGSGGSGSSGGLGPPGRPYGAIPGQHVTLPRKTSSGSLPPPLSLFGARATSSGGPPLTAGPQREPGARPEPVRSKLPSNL

[2] = automated patch clamp (SyncroPatch […]PE); format: cell-based, Homo sapiens; settings: read-out: CaV1.2 ramp
[3] = automated patch clamp (SyncroPatch […]PE); format: cell-based, Homo sapiens; settings: read-out: CaV1.2 ramp; remark: listed apart in the source

T1 sequence (Q14524 whole entry): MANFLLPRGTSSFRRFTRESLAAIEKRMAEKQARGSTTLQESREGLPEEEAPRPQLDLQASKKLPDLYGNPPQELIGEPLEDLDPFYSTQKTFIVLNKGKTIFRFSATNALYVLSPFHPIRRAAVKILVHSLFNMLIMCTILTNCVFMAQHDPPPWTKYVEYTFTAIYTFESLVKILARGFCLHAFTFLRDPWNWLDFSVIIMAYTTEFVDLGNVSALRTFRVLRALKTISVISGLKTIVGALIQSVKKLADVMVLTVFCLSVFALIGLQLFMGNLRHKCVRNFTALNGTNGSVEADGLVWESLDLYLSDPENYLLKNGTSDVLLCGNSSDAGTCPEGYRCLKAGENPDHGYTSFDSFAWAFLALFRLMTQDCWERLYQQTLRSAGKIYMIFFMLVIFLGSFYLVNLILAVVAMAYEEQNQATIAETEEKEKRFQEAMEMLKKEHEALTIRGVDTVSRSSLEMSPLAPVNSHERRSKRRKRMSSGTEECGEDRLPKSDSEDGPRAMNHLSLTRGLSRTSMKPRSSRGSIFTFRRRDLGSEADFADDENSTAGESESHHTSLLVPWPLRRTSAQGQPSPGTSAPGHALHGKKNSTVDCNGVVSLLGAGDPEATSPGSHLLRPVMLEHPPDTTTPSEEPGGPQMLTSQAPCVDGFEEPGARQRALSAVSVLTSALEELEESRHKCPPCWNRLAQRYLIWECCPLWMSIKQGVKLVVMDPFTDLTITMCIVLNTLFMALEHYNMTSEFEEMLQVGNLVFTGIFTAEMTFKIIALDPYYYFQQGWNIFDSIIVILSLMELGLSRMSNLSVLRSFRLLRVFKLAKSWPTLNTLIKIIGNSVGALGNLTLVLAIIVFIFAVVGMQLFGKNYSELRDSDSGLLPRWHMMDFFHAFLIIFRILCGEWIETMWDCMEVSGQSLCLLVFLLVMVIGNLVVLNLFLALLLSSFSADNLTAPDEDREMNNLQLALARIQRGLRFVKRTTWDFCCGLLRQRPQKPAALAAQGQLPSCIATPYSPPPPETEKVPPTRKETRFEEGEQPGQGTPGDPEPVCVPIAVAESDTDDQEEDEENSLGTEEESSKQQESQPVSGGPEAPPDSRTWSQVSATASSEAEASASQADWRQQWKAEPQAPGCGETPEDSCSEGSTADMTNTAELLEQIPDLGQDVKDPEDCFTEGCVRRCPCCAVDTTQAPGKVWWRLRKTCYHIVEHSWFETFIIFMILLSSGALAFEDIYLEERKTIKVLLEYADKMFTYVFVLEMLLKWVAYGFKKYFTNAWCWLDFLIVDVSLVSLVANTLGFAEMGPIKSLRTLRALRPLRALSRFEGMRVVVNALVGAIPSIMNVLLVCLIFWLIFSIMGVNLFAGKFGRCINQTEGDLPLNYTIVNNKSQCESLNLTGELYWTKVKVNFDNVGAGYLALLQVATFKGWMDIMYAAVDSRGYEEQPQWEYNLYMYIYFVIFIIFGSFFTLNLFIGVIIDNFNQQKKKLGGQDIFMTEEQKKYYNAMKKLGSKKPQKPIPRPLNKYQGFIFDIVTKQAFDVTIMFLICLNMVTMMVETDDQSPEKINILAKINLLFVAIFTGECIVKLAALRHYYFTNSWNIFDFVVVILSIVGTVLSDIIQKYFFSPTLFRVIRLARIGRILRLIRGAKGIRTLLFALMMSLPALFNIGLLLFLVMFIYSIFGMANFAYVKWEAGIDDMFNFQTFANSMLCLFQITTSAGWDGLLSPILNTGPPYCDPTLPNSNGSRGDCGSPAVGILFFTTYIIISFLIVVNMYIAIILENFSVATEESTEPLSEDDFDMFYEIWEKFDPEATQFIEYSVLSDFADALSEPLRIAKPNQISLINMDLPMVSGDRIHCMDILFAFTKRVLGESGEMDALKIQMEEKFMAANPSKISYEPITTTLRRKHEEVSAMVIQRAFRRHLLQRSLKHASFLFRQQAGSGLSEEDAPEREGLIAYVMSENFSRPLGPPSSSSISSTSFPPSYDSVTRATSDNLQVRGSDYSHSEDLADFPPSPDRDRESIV
T2 sequence (P51787 whole entry): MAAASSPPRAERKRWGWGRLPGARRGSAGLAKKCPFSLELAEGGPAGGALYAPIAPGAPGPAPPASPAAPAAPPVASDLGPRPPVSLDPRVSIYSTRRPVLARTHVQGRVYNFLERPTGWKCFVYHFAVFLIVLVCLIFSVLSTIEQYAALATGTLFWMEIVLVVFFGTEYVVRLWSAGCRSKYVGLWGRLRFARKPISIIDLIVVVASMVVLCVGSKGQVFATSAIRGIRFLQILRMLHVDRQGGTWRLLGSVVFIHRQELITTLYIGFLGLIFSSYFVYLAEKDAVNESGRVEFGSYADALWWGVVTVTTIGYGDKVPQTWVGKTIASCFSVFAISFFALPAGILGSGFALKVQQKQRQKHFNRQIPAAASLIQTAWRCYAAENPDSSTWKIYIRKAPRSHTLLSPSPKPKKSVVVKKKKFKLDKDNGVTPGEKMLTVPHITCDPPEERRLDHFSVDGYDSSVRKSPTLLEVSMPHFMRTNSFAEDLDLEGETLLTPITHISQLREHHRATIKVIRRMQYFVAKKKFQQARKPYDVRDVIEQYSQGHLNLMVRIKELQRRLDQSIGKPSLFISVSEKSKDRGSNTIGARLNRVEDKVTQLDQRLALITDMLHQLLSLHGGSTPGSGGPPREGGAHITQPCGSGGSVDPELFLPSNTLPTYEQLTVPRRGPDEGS
T3 sequence (Q12809 whole entry): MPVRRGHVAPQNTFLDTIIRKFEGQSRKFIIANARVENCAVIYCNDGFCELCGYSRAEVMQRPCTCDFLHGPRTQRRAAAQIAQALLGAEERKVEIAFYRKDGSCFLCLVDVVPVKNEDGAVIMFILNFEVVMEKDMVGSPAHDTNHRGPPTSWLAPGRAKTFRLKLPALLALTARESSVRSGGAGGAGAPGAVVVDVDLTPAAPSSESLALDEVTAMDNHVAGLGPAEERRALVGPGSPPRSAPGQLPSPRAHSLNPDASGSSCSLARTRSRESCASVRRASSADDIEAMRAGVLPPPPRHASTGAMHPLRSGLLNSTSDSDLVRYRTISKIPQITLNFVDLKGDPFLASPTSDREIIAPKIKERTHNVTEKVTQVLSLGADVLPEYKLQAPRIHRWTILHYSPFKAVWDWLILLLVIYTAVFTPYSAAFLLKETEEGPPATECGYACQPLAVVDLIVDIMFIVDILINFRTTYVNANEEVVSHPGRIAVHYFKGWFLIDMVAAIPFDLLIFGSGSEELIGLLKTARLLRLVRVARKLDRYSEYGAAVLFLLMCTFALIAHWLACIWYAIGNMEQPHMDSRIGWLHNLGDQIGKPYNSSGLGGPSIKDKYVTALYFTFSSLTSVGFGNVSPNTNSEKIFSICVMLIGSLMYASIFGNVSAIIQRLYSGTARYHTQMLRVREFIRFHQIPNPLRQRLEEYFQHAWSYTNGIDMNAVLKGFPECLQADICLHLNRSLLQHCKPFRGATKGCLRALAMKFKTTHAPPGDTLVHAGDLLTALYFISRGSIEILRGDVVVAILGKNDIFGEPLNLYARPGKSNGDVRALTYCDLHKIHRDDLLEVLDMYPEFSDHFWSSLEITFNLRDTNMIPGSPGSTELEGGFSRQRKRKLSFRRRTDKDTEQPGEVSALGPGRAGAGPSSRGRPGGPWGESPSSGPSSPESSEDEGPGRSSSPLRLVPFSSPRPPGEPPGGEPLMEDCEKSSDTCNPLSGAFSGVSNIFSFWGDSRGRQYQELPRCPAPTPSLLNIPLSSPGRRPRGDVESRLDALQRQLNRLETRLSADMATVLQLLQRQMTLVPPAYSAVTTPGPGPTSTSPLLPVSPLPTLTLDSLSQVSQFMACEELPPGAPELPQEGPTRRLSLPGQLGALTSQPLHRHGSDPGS

| IC50 (Kir2.1; read-out: Kir2.1) [µM] | IC50 (HCN4; read-out: HCN4) [µM] | Compound | IC50 (NaV1.5) [µM] | IC50 (KV7.1/minK; read-out: NaV1.5 late) [µM] | IC50 (hERG) [µM] | IC50 [1] [µM] | IC50 (Kir2.1; read-out: NaV1.5 late) [µM] | IC50 (HCN4; read-out: NaV1.5 late) [µM] | IC50 [2] [µM] | IC50 (Kir2.1; read-out: NaV1.5 peak) [µM] | IC50 [3] [µM] | IC50 (KV7.1/minK; read-out: NaV1.5 peak) [µM] | IC50 (HCN4; read-out: NaV1.5 peak) [µM] |
| --- | --- | --- | --- | --- | --- | --- | --- | --- | --- | --- | --- | --- | --- |
|  |  | CC[C@H]1OC(=O)[C@H](C)[C@@H](O[C@H]2C[C@@](C)(OC)[C@@H](O)[C@H](C)O2)[C@H](C)[C@@H](O[C@@H]2O[C@H](C)C[C@H](N(C)C)[C@H]2O)[C@](C)(O)C[C@@H](C)CN(C)[C@H](C)[C@@H](O)[C@]1(C)O [azithromycin] | 612 | > 1000 | 439 | 771 | > 1000 | > 1000 |  |  |  |  |  |
|  |  | CCN(CCO)CCCC(C)Nc1ccnc2cc(Cl)ccc12 (stereo not shown) [hydroxychloroquine] | 17 |  | 2.66 | 23.9 |  |  | > 300 | 44.2 | > 300 |  |  |
|  |  | CC[C@H]1OC(=O)[C@H](C)[C@@H](O[C@H]2C[C@@](C)(OC)[C@@H](O)[C@H](C)O2)[C@H](C)[C@@H](O[C@@H]2O[C@H](C)C[C@H](N(C)C)[C@H]2O)[C@](C)(O)C[C@@H](C)C(=O)[C@H](C)[C@@H](O)[C@]1(C)O [erythromycin] |  |  |  |  |  |  |  |  |  | > 1000 | > 1000 |
| 4.98 | 96.2 | CCN(CC)CCCC(C)Nc1ccnc2cc(Cl)ccc12 (stereo not shown) [chloroquine] | 13.9 |  |  | 17.9 |  |  | > 300 |  |  |  |  |
